Results taken from PMC6108078 (Chemical research in toxicology, 2018).
Values joined by “and” are separate entries in the source; they are usually repeats but may differ in a detail not shown here. Equal entries are not always repeated. Where two headings read alike, the source gives them in different places.

Legend:
[1] = cited from earlier work
[2] = monkeys administered [14C]sunitinib L-malate; ref sunitinib NDA document, 9; cited from earlier work
[3] = mass balance studies in humans; cited from earlier work
[4] = target: P450 3A4 (Homo sapiens, UniProt P08684); assay: Kinetics of sunitinib metabolite formation by recombinant P450 3A4; format: in vitro ADME; details: sunitinib N-deethylation (M1 formation), recombinant enzymes
Sequence of P450 3A4 (P08684 whole entry): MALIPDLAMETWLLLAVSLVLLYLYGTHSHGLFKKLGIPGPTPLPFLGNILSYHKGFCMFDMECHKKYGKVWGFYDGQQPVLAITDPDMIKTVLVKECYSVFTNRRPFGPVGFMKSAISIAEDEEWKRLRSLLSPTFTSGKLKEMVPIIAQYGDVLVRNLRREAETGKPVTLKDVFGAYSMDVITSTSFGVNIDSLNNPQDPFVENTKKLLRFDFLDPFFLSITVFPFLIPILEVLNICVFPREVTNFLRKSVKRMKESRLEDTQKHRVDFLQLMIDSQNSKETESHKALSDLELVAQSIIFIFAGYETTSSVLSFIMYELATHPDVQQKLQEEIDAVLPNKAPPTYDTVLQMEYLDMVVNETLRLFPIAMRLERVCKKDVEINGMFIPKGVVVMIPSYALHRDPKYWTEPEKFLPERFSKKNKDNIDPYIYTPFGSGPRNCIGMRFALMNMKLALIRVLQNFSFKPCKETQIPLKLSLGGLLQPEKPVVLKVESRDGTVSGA

[5] = format: in vitro ADME, human
[6] = for decrease of M5 formation compared to vehicle control: furafylline 25 μM, quinidine 2 μM
[7] = patients taking sunitinib; cited from earlier work
[8] = GSH trapping in pooled human liver microsomes; format: in vitro ADME; details: microsomal incubations in the absence of NADPH supplementation
[9] = system: HepG2 cells; details: treatment of HepG2 cells; cited from earlier work
[10] = in the absence of dGSH, sunitinib 25 μM, 1 mg/mL, 30 min
[11] = in the presence of dGSH (1 mM), sunitinib 25 μM, 1 mg/mL, 30 min
[12] = sunitinib 10 μM, 0.1 mg/mL, GSH 5 mM, 10 min, ketoconazole 1 μM, CYP3cide 2 μM, mean ± SD, n = 3

## CCNCCNC(=O)c1c(C)[nH]c(/C=C2\C(=O)Nc3ccc(F)cc32)c1C [M1, N-desethylsunitinib]
[1]
  activity relative to parent drug: equal to that of the parent drug
[2]
  share of the total radioactivity recovered in feces: 20–40%
[3]
  share of the total dose: 32–52%
[4]
  fold higher efficiency (kcat/Km) of P450 3A4 compared to P450 1A2: ~5 fold
[5]; [10]
  M1 share of the metabolic turnover of sunitinib: 70%
  ratio of M1 to sunitinib UV peak area: 0.70
[5]; [11]
  M1 share of the metabolic turnover of sunitinib: 41%
  ratio of M1 to sunitinib (UV peak area at 420–440 nm): 0.41
[5]; summary statement in discussion
  M1 share of sunitinib metabolic turnover in human liver microsomes: ≥ 41%
[5]; sunitinib 25 μM, 1 mg/mL, 30 min, UV absorbance peak area at 430 nm, n = 2-3
  fold higher M1 levels in the absence of dGSH compared to in the presence of dGSH: 2.5 fold

## Cc1nc2c([nH]1)c(=O)n(C)c(=O)n2Cc1ccco1 [furafylline]
[6]; [12]
  decrease of M5 formation compared to vehicle control: 62% and 62 ± 17%

## CC(=O)N1CCN(c2ccc(OCC3COC(Cn4ccnc4)(c4ccc(Cl)cc4Cl)O3)cc2)CC1 (centres unmarked) [ketoconazole]
[6]; [12]
  decrease of M5 formation compared to vehicle control: 52 ± 4%
  decrease of M1 levels compared to vehicle control: 88% and 88 ± 5%
  decrease of M3 levels compared to control: 40 ± 9%

## CCN(CC)CCNC(=O)c1c(C)[nH]c(/C=C2\C(=O)Nc3ccc(F)cc32)c1C [sunitinib]
[7]
  occurrence of clinically significant liver injury: 3–4 % of patients
  occurrence of liver failure: 0.3 % of patients
[8]
  direct GSH conjugation of parent drug (Sun–SG): evidence for the direct conjugation of GSH to the parent drug
[9]
  hepatocellular toxicity effects: increase the production of reactive oxygen species, disrupt the mitochondrial membrane potential, deplete glutathione content, and induce apoptosis in a concentration-dependent manner

## O=c1cc(-c2ccccc2)oc2c1ccc1ccccc12 [α-naphthoflavone]
[6]; initial experiments, coincubation with sunitinib, data not shown
  effect on formation of M3 and M5: significantly increased
[6]; sunitinib 10 μM, 0.1 mg/mL, GSH 5 mM, 10 min, α-naphthoflavone 1 μM, mean ± SD, n = 3
  increase of M3 levels compared to control: 41 ± 17%
